{"source": "paper PMC13316043", "about": "“Structural basis of NSD2 degradation via targeted recruitment of SCF-FBXO22” (Nature Communications, 2026)", "key": {"[1]": {"biological_target": "T1, *NSD2 PWWP1 ubiquitination by SCF^FBXO22 (Homo sapiens, UniProt O96028+Q8NEZ5)", "T1 construct": "fluorescently labeled NSD2-PWWP1 (*NSD2-PWWP1); the FIST domain of FBXO22 rather than full-length FBXO22 that is used in the ubiquitination; 6xHis (N, cleaved yes); GST (cleaved yes); made in house; host or cells: SKP1-FBXO22: Trichoplusia ni insect cells; NSD2 PWWP1 and NEDD8: E. coli BL21(DE3)-CodonPlus RIL", "T1 sequence (Q8NEZ5 whole entry, one chain of several, the tested form may be a part)": "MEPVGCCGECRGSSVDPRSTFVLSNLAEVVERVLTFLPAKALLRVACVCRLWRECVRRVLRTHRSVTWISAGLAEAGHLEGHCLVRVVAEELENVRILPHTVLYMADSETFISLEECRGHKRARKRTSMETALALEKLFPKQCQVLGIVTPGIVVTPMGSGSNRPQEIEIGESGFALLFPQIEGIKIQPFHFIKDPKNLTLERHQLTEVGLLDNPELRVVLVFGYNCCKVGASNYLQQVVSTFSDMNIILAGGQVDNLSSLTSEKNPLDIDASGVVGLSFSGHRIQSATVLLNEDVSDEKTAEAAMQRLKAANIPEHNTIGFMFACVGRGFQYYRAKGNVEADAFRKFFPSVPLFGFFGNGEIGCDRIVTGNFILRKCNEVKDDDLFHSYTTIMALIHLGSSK", "assay": "Ubiquitination assay using purified components", "assay_type": "biochemical", "details": "compound at 0.5 µM, fluorescent SDS-PAGE", "protocol": "Ubiquitination assays were performed by mixing 2 separate solutions. First, SKP1-FBXO22, fluorescently labeled NSD2-PWWP1 (*NSD2-PWWP1), and compounds, unless otherwise indicated, were pre-incubated for 15 min on ice. Second, UBA1, UBE2R2, UBE2D2 or UBE2L3 and ARIH1, NEDD8 ~ CUL1-RBX1, MgATP, and reaction buffer (20 mM HEPES pH 8, 200 mM NaCl, 0.5 mg/mL bovine serum albumin (BSA)) were combined on ice to generate a master mix. A standard volume of master mix was added to each reaction tube, and Ub was added to initiate the ubiquitination reaction containing 100µM Ub, 1µM SKP1-FBXO22, 0.5µM *NSD2 PWWP1, 0.5µM compound, 0.1µM UBA1, 1µM UBE2R2, 1µM UBE2D2 or 1µM UBE2L3, and 1µM ARIH1, 1µM NEDD8~CUL1-RBX1, and 5mM MgATP in reaction buffer. Ubiquitination assays comparing *NSD2 PWWP1 mutants were performed similarly, except that SKP1-FBXO22, *NSD2 PWWP1 mutants, and compounds were not incubated separately prior to the start of the reaction. The reactions proceeded at room temperature for 15 min until they were quenched by adding SDS Loading Buffer. The ubiquitinated *NSD2 PWWP1 was visualized by subjecting the reactions to SDS-PAGE and imaging using the Amersham Typhoon."}, "[2]": {"system": "NSD2 and other known FBXO22 substrates", "details": "prior work; cited from earlier work"}, "[3]": {"biological_target": "T2, NSD2 (long and short forms) (Homo sapiens, UniProt O96028)", "T2 sequence (O96028 211-350 limits assumed)": "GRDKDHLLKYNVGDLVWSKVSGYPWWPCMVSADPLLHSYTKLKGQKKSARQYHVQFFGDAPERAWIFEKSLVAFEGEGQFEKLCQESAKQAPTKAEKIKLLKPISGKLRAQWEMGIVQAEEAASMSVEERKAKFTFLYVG", "assay": "Western blot of NSD2 in HEK293T cells", "assay_type": "cell-based", "details": "10 µM, 6 hrs, vs DMSO", "protocol": "(§1) HEK293T and U2OS were obtained from ATCC and cultured in high-glucose-containing Dulbecco’s Modified Eagle’s Medium (DMEM; Gibco; cat. #11995) supplemented with 10% fetal bovine serum (VWR) and 1% penicillin/streptomycin (Gibco). Cells were treated with either UNC10415667, UNC12149, UNC12567, hemin (Sigma; cat. #H9039), or DMSO control for the indicated times and analyzed by western blot using standard procedures. Briefly, cells were lysed on ice for 15 min in NETN lysis buffer (20 mM Tris pH 8.0, 100 mM NaCl, 0.5 mM EDTA, 0.5% NP40) supplemented with 10 µg/mL aprotinin, 10 µg/mL leupeptin, 10 µg/mL pepstatin A, 1 mM sodium orthovanadate, 1 mM sodium fluoride, and 1 mM AEBSF (4-[two aminoethyl] benzenesulfonyl fluoride). Cell lysates were centrifuged at 20,000×g in a benchtop microcentrifuge at 4 °C for 10 min. Protein concentration was determined by Bradford assay (Bio-Rad; cat. #5000006). Protein concentration was normalized using Laemmli buffer. Samples were heated for 5 min at 95°C in a dry water-bath. Samples were separated on TGX stain free gels (Bio-Rad) transferred to nitrocellulose membrane and blocked in 5% non-fat dry milk (Biorad; cat. #1706404) diluted in 1x TBS-T (137 mM NaCl, 2.7 mM KCl, 25 mM Tris pH 7.6, 1% Tween-20). Primary antibody incubations (Anti-NSD2 (Abcam; Cat# ab75359; Lot# 1093214-1; 1:1000 dilution), Anti-BACH1 (Fortis Life Sciences; Cat# A303-805A; Lot# 1; 1:1000 dilution), and Anti-GAPDH (Santa Cruz Biotechnology; Cat# sc-47724; Lot# C1023; 1:1000 dilution)) were performed overnight at 4 °C. Secondary antibodies (Peroxidase AffiniPure Goat Anti-Rabbit IgG (H + L) (Jackson Immuno; Cat# 111-035-003; 1:5000 dilution) and Peroxidase AffiniPure Goat Anti-Mouse IgG (H + L) (Jackson Immuno; Cat# 115-035-003; 1:5000 dilution)) were incubated for 1 h at room temperature. Blots were developed by chemiluminescence using Pierce ECL (Thermo Fisher Scientific; cat. #32106)."}, "BACH1": {"system": "BACH1", "assay": "Western blot of BACH1 in HEK293T cells", "assay_type": "cell-based, human", "protocol": "as §1"}, "[4]": {"system": "FBXO22-NSD2 PWWP1 ternary complex", "assay": "Size-exclusion chromatography to monitor ternary complex formation", "assay_type": "binding, human", "protocol": "Formation of the SCF^FBXO22-UNC10088-NSD2 PWWP1 and SCF^FBXO22-UNC10415667-NSD2 PWWP1 ternary complexes was performed by incubating SKP1-FBXO22, CUL1-RBX1, NSD2 PWWP1, and UNC10088 or UNC10415667 at a 1:1:1:1 molar ratio for 4 h on ice. The SCF^FBXO22-UNC10088-NSD2 PWWP1-BACH1 BTB ternary complex was formed by incubating SKP1-FBXO22, CUL1-RBX1, NSD2 PWWP1, UNC10088, and BACH1 BTB at a 1:1:1:1:1.5 molar ratio for 1 h on ice. The incubated sample was loaded onto a Superdex 200 Increase SD200 column (Cytiva), equilibrated with 20 mM HEPES pH 8, 200 mM NaCl, 1 mM DTT, for size-exclusion chromatography, and fractions containing all subunits of the SCF^FBXO22-Degrader-NSD2 PWWP1 complex were pooled and concentrated. The SCF^FBXO22-UNC10088-NSD2 PWWP1, SCF^FBXO22-UNC10415667-NSD2 PWWP1, and SCF^FBXO22-UNC10088-NSD2 PWWP1-BACH1 BTB complexes were concentrated to 33 µM, 10.9 µM, and 4.1 µM, respectively, and flash frozen. […] In contrast, only the PWWP1 and BTB domains of NSD2 and BACH1, respectively, were used.\nFBXO22 WT and variants were incubated on ice with NSD2 PWWP1 and either UNC10088 or UNC10415667 at 5 µM. After 1 h, the samples were centrifuged at 16,060 x g for 10 min at 4 °C. Each sample was examined for C326- and compound-dependent complex formation by comparing the SEC chromatograms and Coomassie-stained SDS-PAGE gels. […] These experiments were performed using a Superdex 200 Increase SD200 column (Cytiva) and 20 mM HEPES pH 8, 200 mM NaCl, 1 mM DTT."}, "[5]": {"biological_target": "T3, NSD2 (U2OS NSD2-HiBiT cells) (Homo sapiens, UniProt O96028)", "T3 construct": "RNPs were introduced into U2OS cells by electroporation; endogenous in cells; host or cells: U2OS NSD2-HiBiT clone P112 (CRISPR knock-in)", "T3 sequence (O96028 1-1365)": "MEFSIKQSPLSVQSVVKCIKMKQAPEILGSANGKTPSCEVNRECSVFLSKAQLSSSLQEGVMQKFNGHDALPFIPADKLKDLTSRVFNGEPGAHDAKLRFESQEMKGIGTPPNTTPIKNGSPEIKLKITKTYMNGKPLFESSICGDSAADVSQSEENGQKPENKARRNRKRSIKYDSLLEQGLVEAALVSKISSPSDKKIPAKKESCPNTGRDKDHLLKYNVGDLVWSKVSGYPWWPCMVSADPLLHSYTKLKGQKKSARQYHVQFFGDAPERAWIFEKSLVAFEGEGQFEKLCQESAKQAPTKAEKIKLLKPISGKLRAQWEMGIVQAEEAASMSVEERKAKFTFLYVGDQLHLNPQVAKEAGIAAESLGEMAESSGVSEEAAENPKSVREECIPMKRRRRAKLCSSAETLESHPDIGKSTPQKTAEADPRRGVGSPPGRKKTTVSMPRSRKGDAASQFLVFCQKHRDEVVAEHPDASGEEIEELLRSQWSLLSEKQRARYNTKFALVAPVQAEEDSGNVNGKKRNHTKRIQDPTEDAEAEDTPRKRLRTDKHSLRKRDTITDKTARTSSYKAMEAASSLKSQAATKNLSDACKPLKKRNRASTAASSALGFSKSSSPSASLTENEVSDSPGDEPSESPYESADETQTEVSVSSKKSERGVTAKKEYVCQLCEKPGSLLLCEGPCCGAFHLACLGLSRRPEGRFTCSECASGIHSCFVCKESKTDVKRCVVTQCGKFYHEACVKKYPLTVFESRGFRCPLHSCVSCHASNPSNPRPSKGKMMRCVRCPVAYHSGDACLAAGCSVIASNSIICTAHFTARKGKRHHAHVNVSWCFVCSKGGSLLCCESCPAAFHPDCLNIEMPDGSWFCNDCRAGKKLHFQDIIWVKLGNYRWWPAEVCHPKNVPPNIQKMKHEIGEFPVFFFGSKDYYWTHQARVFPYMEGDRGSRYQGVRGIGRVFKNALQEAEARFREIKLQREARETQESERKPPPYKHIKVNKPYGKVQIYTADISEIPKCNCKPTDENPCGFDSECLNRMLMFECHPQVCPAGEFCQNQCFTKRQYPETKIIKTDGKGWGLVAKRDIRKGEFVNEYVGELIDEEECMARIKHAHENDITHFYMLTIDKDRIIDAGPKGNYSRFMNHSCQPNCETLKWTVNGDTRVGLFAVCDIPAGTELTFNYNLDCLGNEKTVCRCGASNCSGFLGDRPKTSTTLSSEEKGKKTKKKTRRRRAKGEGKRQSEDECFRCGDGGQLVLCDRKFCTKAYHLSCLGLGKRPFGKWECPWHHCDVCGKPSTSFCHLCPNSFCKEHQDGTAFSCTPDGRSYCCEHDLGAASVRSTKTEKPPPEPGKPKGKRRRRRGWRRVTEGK", "assay": "NSD2 HiBiT degradation assay", "assay_type": "cell-based", "details": "U2OS NSD2-HiBit cells, 1 µM, 6 h", "from_the_text": "The NSD2 genomic sequence was obtained from the UCSC genome browser and used to design sgRNAs to introduce HiBiT tags at either the 5’ or 3’ ends of the gene. sgRNA were assembled into RNPs using TrueCut Cas9 Protein v2 (Invitrogen, Cat#A36497), an sgRNA crRNA:tracrRNA duplex (below; IDT) and ssODN (below; IDT). RNPs were introduced into U2OS cells by electroporation using a Neon XT electroporation system (1750 V, 10 ms, 3 pulses) in R-buffer, using Thermo Fisher Neon transfection kit (Cat# MPK1025K) and according to the manufacturer's protocol. After plating for recovery for four days, single cell clones limited dilution cloning. Single cell clones that grew out were identified as containing integrated HiBiT tags on NSD2 by performing HiBiT assays using HiBiT lytic assay (Promega: N3040) and read on a plate reader. Clones were further confirmed by PCR analysis.\nTo test compounds for NSD2 degradation, a compound plate was prepared by diluting compounds in DMSO into cell media in a 384-deep-well plate (Revvity). Then, 6 µL of the diluted compounds were transferred into the well of the 384-well assay plate (Corning). 24 µL of the NSD2 HiBiT U2OS P112 cells or parental U2OS cells (3000 cells/well) were added to each well to make a final volume of 30 µL with a 0.1% final DMSO concentration. For multiple time points, multiple assay plates were made and incubated in the incubator at 37 °C in 5% CO2 for 3/6/12/24/48 hrs. 10 min before the reading, the assay plate and the Nano-Glo HiBiT Lytic Detection System (Promega) were brought to room temperature. The HiBiT lytic reagent master mix was prepared according to the product instructions and added to the assay plate. The plate was then incubated on an orbital shaker for 5 min at room temperature, equilibrated for 10 min, and then read using the GloMax luminometer (Promega) for luminescence detection. Compound treatment was normalized to the DMSO control with the background subtraction using the parental U2OS cell line as the background control, plated alongside the HiBiT U2OS P112 cells. The data and graphs were then analyzed and generated using GraphPad Prism (v 10.4.1). DC50 and Dmax were calculated by fitting the data to a non-linear regression curve."}}}
{"compound": "NCCCCCC(=O)N1CCc2cc(NC(=O)c3ccc(CN(C(=O)c4ccc5c(c4)OCC(=O)N5)C4CC4)cc3)ccc2C1", "note": "[UNC8732]", "values": [{"measurement": "SCF^FBXO22-dependent ubiquitination of *NSD2 PWWP1", "setting": "[1]", "result": "no effect"}, {"measurement": "selectivity of degradation in global proteomics", "setting": "[2]", "result": "specifically degrades NSD2"}]}
{"compound": "CC(C)N(Cc1ccc(C(=O)Nc2ccc3c(c2)CCN(C(=O)c2ccc(C=O)cc2)C3)cc1)C(=O)c1ccc2c(c1)OCC(=O)N2", "note": "[UNC12567]", "values": [{"measurement": "NSD2 levels by immunoblot", "setting": "[3]", "result": "unchanged"}, {"measurement": "BACH1 levels by immunoblot", "setting": "BACH1; 10 µM, 6 hrs", "result": "unchanged"}, {"measurement": "ternary complex formation between FBXO22 and NSD2 PWWP1 by SEC", "setting": "[4]", "result": "did not support ternary complex formation"}]}
{"compound": "Hemin [reference compound]", "values": [{"measurement": "BACH1 degradation by immunoblot", "setting": "BACH1; 20 µM Hemin", "result": "degradation was promoted"}]}
{"compound": "O=Cc1ccc(CC(=O)N2CCc3cc(NC(=O)c4ccc(CN(C(=O)c5ccc6c(c5)OCC(=O)N6)C5CC5)cc4)ccc3C2)cc1", "note": "[UNC10415668]", "values": [{"measurement": "reduction of NSD2 levels", "setting": "[5]", "result": "more modest effect"}, {"measurement": "SCF^FBXO22-dependent ubiquitination of *NSD2 PWWP1", "setting": "[1]", "result": "able to induce polyubiquitination"}]}
